# Results taken from paper doi:10.1101/2023.12.04.569845, “Identification of 4-(6-((2-methoxyphenyl)amino)pyrazin-2-yl)benzoic acids as CSNK2A inhibitors with antiviral activity and improved selectivity over PIM3” (bioRxiv, 2023).
# Like-named read-outs stand apart in the source and are kept apart here.
# Experiments:
# Assay in all cases: biochemical
# Design in all cases: Thermal shift (DSF, SYPRO Orange) Tm shift of recombinant kinase domains at 10 uM compound
# JNK1 = biological target: T1, JNK1 (Homo sapiens, UniProt P45983)
# T1 construct: gene MAPK8
# ULK3 = biological target: T2, ULK3 (Homo sapiens, UniProt Q6PHR2)
# T2 sequence (Q6PHR2 1-472): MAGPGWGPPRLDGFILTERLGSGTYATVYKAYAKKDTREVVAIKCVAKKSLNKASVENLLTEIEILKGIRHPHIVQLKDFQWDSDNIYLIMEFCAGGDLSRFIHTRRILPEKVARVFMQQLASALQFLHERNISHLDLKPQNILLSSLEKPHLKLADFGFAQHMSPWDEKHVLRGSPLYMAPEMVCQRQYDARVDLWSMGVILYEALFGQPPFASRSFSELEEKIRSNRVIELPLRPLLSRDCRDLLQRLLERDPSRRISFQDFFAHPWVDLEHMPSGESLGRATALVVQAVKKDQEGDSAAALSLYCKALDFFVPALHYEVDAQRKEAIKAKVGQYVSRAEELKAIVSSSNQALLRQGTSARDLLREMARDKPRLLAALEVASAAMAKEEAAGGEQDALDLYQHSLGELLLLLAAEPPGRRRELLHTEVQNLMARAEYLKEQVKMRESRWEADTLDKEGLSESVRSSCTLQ
# p38d = biological target: T3, p38d (Homo sapiens, UniProt O15264)
# T3 construct: gene MAPK13
# T3 sequence (O15264 1-365): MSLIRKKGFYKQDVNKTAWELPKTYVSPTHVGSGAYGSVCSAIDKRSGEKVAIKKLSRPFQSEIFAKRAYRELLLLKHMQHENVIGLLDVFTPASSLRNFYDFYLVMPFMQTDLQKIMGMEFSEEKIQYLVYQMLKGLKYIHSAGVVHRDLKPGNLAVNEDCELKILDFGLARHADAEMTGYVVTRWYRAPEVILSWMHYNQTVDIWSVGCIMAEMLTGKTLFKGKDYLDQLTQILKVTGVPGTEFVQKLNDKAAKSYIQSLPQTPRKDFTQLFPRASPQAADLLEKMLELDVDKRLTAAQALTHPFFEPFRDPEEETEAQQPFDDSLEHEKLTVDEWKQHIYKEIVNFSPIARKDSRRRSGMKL
# MST4 = biological target: T4, MST4 (Homo sapiens, UniProt Q9P289)
# T4 construct: gene STK26
# MST3 = biological target: T5, MST3 (Homo sapiens, UniProt Q9Y6E0)
# T5 construct: gene STK24
# EPHA4 = EPHA4 (Homo sapiens, UniProt P54764)
# BMX = biological target: T6, BMX (Homo sapiens, UniProt P51813)
# T6 sequence (P51813 1-675): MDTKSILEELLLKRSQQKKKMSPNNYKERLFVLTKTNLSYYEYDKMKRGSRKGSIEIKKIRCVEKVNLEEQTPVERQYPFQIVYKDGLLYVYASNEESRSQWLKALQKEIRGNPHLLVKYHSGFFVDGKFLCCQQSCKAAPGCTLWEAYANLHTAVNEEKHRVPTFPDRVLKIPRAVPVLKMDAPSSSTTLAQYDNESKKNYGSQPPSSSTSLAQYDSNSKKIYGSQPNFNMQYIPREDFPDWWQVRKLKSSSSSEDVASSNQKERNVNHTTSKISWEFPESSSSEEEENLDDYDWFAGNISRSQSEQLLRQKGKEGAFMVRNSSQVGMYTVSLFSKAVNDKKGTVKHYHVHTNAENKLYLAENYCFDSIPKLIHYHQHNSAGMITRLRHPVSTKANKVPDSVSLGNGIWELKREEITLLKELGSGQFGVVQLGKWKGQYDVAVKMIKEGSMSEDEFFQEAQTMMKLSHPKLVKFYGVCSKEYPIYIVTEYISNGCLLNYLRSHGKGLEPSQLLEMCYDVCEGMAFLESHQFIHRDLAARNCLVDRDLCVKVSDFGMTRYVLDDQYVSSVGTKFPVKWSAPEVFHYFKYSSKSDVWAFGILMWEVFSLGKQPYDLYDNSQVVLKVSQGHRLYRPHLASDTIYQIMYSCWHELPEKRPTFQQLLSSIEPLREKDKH
# FECH = biological target: T7, FECH (Homo sapiens, UniProt P22830)
# T7 sequence (P22830 1-423): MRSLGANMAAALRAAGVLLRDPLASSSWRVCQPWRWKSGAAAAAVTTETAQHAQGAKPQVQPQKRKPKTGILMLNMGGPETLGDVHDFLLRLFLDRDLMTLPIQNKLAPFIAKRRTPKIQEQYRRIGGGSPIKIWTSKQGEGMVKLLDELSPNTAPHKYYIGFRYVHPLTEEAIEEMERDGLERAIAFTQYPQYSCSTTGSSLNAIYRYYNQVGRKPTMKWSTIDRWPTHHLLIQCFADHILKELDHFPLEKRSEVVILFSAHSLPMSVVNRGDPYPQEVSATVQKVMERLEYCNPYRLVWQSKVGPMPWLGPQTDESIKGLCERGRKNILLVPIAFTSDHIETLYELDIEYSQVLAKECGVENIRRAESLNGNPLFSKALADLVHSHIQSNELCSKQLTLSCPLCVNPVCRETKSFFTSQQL
# DYRK1A = DYRK1A (Homo sapiens, UniProt Q13627)
# MSSK1 = biological target: T8, MSSK1 (Homo sapiens, UniProt Q9UPE1)
# T8 construct: gene SRPK3
# T8 sequence (Q9UPE1 whole entry): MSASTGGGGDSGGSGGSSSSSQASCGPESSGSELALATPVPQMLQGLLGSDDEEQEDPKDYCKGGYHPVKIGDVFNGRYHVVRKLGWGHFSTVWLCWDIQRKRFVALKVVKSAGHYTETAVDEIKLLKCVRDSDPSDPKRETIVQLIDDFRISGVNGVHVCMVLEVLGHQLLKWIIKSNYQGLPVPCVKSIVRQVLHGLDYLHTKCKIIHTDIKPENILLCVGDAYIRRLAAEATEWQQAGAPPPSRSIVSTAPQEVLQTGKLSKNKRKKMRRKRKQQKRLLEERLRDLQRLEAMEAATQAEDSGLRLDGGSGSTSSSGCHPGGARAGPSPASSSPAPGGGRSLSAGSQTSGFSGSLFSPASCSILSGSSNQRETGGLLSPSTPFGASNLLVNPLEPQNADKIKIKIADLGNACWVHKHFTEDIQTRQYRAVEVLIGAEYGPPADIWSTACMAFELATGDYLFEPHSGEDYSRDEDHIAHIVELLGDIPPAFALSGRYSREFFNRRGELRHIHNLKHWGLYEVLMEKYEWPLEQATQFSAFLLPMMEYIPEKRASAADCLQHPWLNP
# T1 sequence (P45983 whole entry): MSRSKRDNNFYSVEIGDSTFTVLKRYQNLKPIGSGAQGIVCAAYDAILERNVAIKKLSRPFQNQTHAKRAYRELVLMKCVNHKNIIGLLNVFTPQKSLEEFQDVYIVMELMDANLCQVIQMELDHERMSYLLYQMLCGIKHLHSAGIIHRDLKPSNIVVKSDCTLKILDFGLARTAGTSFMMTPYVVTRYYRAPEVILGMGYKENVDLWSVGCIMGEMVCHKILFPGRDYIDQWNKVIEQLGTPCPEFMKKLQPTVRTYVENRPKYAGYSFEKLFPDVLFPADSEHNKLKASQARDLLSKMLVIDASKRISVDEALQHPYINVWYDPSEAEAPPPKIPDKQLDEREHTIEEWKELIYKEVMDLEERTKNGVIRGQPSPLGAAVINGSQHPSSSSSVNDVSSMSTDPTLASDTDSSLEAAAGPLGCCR
# Sequence of EPHA4 (P54764 whole entry): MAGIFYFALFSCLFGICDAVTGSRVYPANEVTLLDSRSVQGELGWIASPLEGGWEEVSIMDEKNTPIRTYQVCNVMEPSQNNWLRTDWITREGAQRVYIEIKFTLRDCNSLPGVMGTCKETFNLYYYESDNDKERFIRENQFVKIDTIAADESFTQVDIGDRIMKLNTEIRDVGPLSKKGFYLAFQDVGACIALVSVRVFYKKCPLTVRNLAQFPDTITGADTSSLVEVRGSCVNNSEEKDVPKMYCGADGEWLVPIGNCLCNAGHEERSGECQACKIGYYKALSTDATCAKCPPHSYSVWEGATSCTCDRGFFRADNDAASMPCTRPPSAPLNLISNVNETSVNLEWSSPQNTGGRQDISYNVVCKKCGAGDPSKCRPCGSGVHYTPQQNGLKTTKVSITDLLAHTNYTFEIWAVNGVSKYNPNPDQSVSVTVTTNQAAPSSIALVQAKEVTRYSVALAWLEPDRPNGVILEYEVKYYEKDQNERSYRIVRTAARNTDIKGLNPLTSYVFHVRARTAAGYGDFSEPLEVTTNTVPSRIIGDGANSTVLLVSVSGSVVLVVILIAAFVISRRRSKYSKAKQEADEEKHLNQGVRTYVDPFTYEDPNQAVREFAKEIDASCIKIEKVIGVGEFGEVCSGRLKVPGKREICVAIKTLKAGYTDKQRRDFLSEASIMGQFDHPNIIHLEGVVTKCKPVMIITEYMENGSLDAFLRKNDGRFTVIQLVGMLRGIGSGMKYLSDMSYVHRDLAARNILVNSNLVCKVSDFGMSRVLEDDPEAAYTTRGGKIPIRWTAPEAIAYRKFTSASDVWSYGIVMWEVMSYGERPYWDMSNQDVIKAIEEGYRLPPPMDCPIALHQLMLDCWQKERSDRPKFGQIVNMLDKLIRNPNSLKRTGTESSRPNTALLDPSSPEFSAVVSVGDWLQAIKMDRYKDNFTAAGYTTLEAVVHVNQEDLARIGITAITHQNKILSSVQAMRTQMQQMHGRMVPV
# T5 sequence (Q9Y6E0 whole entry): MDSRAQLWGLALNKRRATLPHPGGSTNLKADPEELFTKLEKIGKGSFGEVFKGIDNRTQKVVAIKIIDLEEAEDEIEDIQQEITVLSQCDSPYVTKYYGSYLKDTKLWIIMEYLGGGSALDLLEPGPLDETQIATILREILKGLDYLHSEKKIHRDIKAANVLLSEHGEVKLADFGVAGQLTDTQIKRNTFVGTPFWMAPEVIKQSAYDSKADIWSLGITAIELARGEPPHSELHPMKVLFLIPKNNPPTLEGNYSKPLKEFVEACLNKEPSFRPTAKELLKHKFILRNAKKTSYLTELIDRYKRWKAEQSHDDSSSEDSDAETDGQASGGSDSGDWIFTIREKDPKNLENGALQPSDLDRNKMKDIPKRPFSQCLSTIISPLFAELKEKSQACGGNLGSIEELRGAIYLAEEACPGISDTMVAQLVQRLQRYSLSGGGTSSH
# T4 sequence (Q9P289 whole entry): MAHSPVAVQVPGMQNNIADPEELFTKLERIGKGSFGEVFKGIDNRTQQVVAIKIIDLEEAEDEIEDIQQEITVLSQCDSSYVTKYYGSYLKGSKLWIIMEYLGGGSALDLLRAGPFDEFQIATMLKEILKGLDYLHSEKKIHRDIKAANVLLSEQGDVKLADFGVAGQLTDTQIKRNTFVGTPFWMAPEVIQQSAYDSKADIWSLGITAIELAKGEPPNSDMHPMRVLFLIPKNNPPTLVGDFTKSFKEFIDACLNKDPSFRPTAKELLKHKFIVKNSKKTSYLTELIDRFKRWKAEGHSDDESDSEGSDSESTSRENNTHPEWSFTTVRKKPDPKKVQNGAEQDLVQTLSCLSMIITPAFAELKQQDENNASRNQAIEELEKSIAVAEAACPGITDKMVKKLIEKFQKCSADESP
compound,measurement,setting,value
CC(C)Oc1ccc2ccn(-c3cncc(-c4ccc(C(=O)O)cc4)n3)c2c1 [6c],ΔTm at 10 µM,JNK1; read-out: 6c,3 °C
same,ΔTm at 10 µM,ULK3; read-out: 6c,5 °C
same,ΔTm at 10 µM,p38d; read-out: 6c,1 °C
same,ΔTm at 10 µM,MST4; read-out: 6c,-4 °C
same,ΔTm at 10 µM,MST3; read-out: 6c,-3 °C
same,ΔTm at 10 µM,EPHA4; read-out: 6c,2 °C
same,ΔTm at 10 µM,BMX; read-out: 6c,2 °C
same,ΔTm at 10 µM,FECH; read-out: 6c,-3 °C
same,ΔTm at 10 µM,DYRK1A; read-out: 6c,6 °C
same,ΔTm at 10 µM,MSSK1; read-out: 6c,1 °C
COc1ccc(OC(C)C)cc1Nc1cncc(-c2ccc(C(=O)O)cc2)n1 [7c],ΔTm at 10 µM,JNK1; read-out: 7c,1 °C
same,ΔTm at 10 µM,ULK3; read-out: 7c,3 °C
same,ΔTm at 10 µM,p38d; read-out: 7c,0 °C
same,ΔTm at 10 µM,MST4; read-out: 7c,-1 °C
same,ΔTm at 10 µM,MST3; read-out: 7c,-3 °C
same,ΔTm at 10 µM,EPHA4; read-out: 7c,1 °C
same,ΔTm at 10 µM,BMX; read-out: 7c,1 °C
same,ΔTm at 10 µM,FECH; read-out: 7c,0 °C
same,ΔTm at 10 µM,DYRK1A; read-out: 7c,5 °C
same,ΔTm at 10 µM,MSSK1; read-out: 7c,1 °C
"CC(C)Nc1ccc2cnn(-c3cncc(-c4ccc(C(=O)O)cc4)n3)c2c1 [compound 2, 2]",ΔTm at 10 µM,JNK1; read-out: 2,6 °C
same,ΔTm at 10 µM,ULK3; read-out: 2,7 °C
same,ΔTm at 10 µM,p38d; read-out: 2,0 °C
same,ΔTm at 10 µM,MST4; read-out: 2,3 °C
same,ΔTm at 10 µM,MST3; read-out: 2,1 °C
same,ΔTm at 10 µM,EPHA4; read-out: 2,2 °C
same,ΔTm at 10 µM,BMX; read-out: 2,3 °C
same,ΔTm at 10 µM,FECH; read-out: 2,0 °C
same,ΔTm at 10 µM,DYRK1A; read-out: 2,7 °C
same,ΔTm at 10 µM,MSSK1; read-out: 2,3 °C
